Experimental data published in US20250127787A1, “METHODS FOR TREATING PERIPHERAL NEUROPATHY” (University of Pittsburgh - Of the Commonwealth System of …, priority 2021, published 2025).
Entries after “also recorded” stand apart in the source; their conditions may differ.

System: glutathione peroxidase (GPx)
Experiment: Glutathione peroxidase activity in CYP-CIPN rat tissues
Assay type: in vivo
Conditions: 8-AG 5 mg/kg/day in drinking water
Experimental: Animals. This study employed female Harlan Sprague Dawley (HSD) rats (3-4 mo; Envigo, Indianapolis, IN) and were divided into the following groups: 1) Control, 2) Cyclophosphamide (CYP, 75 mg/kg i.p. in saline vehicle; administered on days 0, 3 and 6); 3) 8-aminoguanine (8-AG; 5 mg/kg/day in drinking water; beginning 2 weeks prior to CYP and continuing until sacrifice (day 8)). The dose of 8-AG is based on our preliminary and published experiments. […] The investigation conforms to the Guide for the Care and Use of Laboratory Animals published by the US National Institutes of Health (NIH Publication No. 85-23, revised 1996). […]
Western immunoblotting: Following the testing paradigms, rats were deeply anesthetized and tissues (e.g., epidermis, peripheral sciatic nerves, spinal cord segments (L3-L5) and dorsal root ganglia (L3-L5) were removed, and a portion of each preparation was homogenized using Lysing Matrix D in a FASTPREP® 24 instrument (MP Biomedicals, Solon, OH) in HBSS [5 mM KCl, 0.3 mM KH2PO4, 138 mM NaCl, 4 mM NaHO3, 0.3 mM Na2HCO3, 0.3 mM Na2HPO4, 5.6 mM glucose and 10 mM Hepes, pH 7.4 containing complete protease inhibitor cocktail (1 tablet/10 ml, Roche, Indianapolis, IN)] and phosphatase inhibitor cocktail (Sigma, 1:100). […] The protein concentrations of the supernatants were determined using the Pierce BCA protein assay (Thermo Scientific, Rockford, IL). […]

Nc1nc2[nH]c(N)nc2c(=O)[nH]1 [8-AG, 8-Aminoguanine]
effect on CYP-induced increase in GPx activity (epidermis): significantly decreased; also recorded: restored values to that of a control state | effect on CYP-induced increase in GPx activity (peripheral (sciatic) nerves): normalized; also recorded: prevented
